23 compounds from PubChem BioAssay AID192 (DTP/NCI, 2004) can be followed below.

Several values for one entry are separate records, joined by “and”; a condition that tells them apart may be missing. Equal entries are not always repeated. Toxic doses and inconclusive results are not listed.

In the experiment the test system is BDF1 mice, B16 melanoma ip, median survival T/C. Briefly: NCI In Vivo Anticancer Drug Screen. Data for tumor model B16 Melanoma (intraperitoneal) in B6D2F1 (BDF1) mice. Particulars: endpoint: median survival time, higher = longer survival. Put shortly:
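Each result divides a survival or tumor-size measurement in the compound-treated group by the same measurement in the vehicle group.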

[1] abbreviates: dose: 100.0 mg/kg/injection, schedule: Q01DX009 (ip), vehicle: saline with Tween-80.
Setting [2] is: dose: 200.0 mg/kg/injection, schedule: Q01DX009 (ip), vehicle: Klucel (hydroxypropylcellulose) (HPC).
Setting [3] is: dose: 400.0 mg/kg/injection, schedule: Q01DX009 (ip), vehicle: Klucel (hydroxypropylcellulose) (HPC).
[4] abbreviates: dose: 100.0 mg/kg/injection, schedule: Q01DX009 (ip), vehicle: Klucel (hydroxypropylcellulose) (HPC).
[5] abbreviates: dose: 2.0 mg/kg/injection, schedule: Q01DX009 (ip), vehicle: saline with Tween-80.
The mark [6] stands for this setting: dose: 4.0 mg/kg/injection, schedule: Q01DX009 (ip), vehicle: saline with Tween-80.
Setting [7] is: dose: 8.0 mg/kg/injection, schedule: Q01DX009 (ip), vehicle: saline with Tween-80.
[8] abbreviates: dose: 1.25 mg/kg/injection, schedule: Q01DX009 (ip), vehicle: Klucel (hydroxypropylcellulose) (HPC).
Setting [9] is: dose: 2.5 mg/kg/injection, schedule: Q01DX009 (ip), vehicle: Klucel (hydroxypropylcellulose) (HPC).
The mark [10] stands for this setting: dose: 5.0 mg/kg/injection, schedule: Q01DX009 (ip), vehicle: Klucel (hydroxypropylcellulose) (HPC).
[11] abbreviates: dose: 6.25 mg/kg/injection, schedule: Q01DX009 (ip), vehicle: saline with Tween-80.
Setting [12] is: dose: 12.5 mg/kg/injection, schedule: Q01DX009 (ip), vehicle: saline with Tween-80.
The mark [13] stands for this setting: dose: 25.0 mg/kg/injection, schedule: Q01DX009 (ip), vehicle: saline with Tween-80.
The mark [14] stands for this setting: dose: 50.0 mg/kg/injection, schedule: Q01DX009 (ip), vehicle: Klucel (hydroxypropylcellulose) (HPC).

Regarding `C[C@@H]1C[C@](O)([C@@H](C)Cl)C(=O)O[C@@H]2CCN3CC=C(COC(=O)[C@]1(C)O)[C@H]23`, the T/C (dose: 5.5 mg/kg/injection, schedule: Q01DX009 (ip), vehicle: saline) is 97 % of control; the T/C (dose: 11.0 mg/kg/injection, schedule: Q01DX009 (ip), vehicle: saline) was 90 % of control; the T/C (dose: 22.0 mg/kg/injection, schedule: Q01DX009 (ip), vehicle: saline) was 111 % of control.

Consider `C=C(C)CNC1=C(C)C(=O)C2=C(C1=O)[C@H](COC(N)=O)[C@]1(OC)[C@@H]3N[C@@H]3CN21`, for which the T/C is 100 % of control (dose: 0.13 mg/kg/injection, schedule: Q01DX001 (ip), vehicle: distilled water + Tween-80); 114 % of control (dose: 0.25 mg/kg/injection, schedule: Q01DX001 (ip), vehicle: distilled water + Tween-80); 123 % of control (dose: 1.5 mg/kg/injection, schedule: Q04DX003 (ip), vehicle: distilled water + Tween-80); 153 % of control (dose: 2.0 mg/kg/injection, schedule: Q01DX001 (ip), vehicle: distilled water + Tween-80); 157 % of control (dose: 3.0 mg/kg/injection, schedule: Q04DX003 (ip), vehicle: distilled water + Tween-80); 167 % of control (dose: 4.0 mg/kg/injection, schedule: Q01DX001 (ip), vehicle: distilled water + Tween-80). In addition, the T/C reads like this: (dose: 6.0 mg/kg/injection, schedule: Q04DX003 (ip), vehicle: distilled water + Tween-80) 215 % of control; (dose: 12.0 mg/kg/injection, schedule: Q04DX003 (ip), vehicle: distilled water + Tween-80) 285 % of control.

`OC(Cc1nc2ccccc2s1)(C(F)(F)F)C(F)(F)F`: the T/C by setting is: under setting [1], 111 % of control; (dose: 100.0 mg/kg/injection, schedule: Q04DX003 (ip), vehicle: saline with Tween-80) 89 % of control; (dose: 400.0 mg/kg/injection, schedule: Q01DX009 (ip), vehicle: saline with Tween-80) 108 % of control; (dose: 400.0 mg/kg/injection, schedule: Q04DX003 (ip), vehicle: saline with Tween-80) 102 % of control.

On to `OCC1OC(n2cnc3c(NO)ncnc32)C(O)C1O` (stereo unspecified), for which the T/C is, setting by setting: under setting [2], 109 % of control; under setting [3], 111 % of control.

In the case of `O=C1C(NCCO)=C(N2CC2)C(=O)C(NCCO)=C1N1CC1`, the T/C is, setting by setting: (dose: 0.19 mg/kg/injection, schedule: Q01DX009 (ip), vehicle: saline) 165 % of control and 202 % of control; (dose: 0.37 mg/kg/injection, schedule: Q01DX009 (ip), vehicle: saline) 161 % of control; (dose: 0.38 mg/kg/injection, schedule: Q01DX009 (ip), vehicle: saline) 191 % of control and 236 % of control; (dose: 0.75 mg/kg/injection, schedule: Q01DX009 (ip), vehicle: saline) 221 % of control.

`O=C(OCOC(=O)c1ccccc1)c1ccccc1`: the T/C is 120 % of control under setting [4], 106 % of control under setting [2] and 114 % of control under setting [3].

As for `COC(=O)c1[nH]c(=O)[nH]c(=O)c1F`, the T/C by setting is: under setting [5], 95 % of control; under setting [6], 97 % of control; under setting [7], 107 % of control.

For `COc1cc([C@@H]2c3cc4c(cc3C[C@H]3COC(=O)[C@@H]32)OCO4)cc(OC)c1OC`, the T/C by setting is: (dose: 5.0 mg/kg/injection, schedule: Q01DX009 (ip), vehicle: saline) 107 % of control; (dose: 10.0 mg/kg/injection, schedule: Q01DX009 (ip), vehicle: saline) 109 % of control.

With `CCCCCCCCCCCCCCCCCC(=O)[O][Pb]([CH3])([CH3])[CH3]`, the T/C reads like this: under setting [8], 99 % of control; under setting [9], 99 % of control; under setting [10], 91 % of control.

Consider `ClCc1cccc2c(CCl)cccc12`, for which the T/C by setting is: under setting [11], 98 % of control; under setting [12], 98 % of control; under setting [13], 102 % of control; (dose: 25.0 mg/kg/injection, schedule: Q01DX009 (ip), vehicle: suspension in saline) 100 % of control; (dose: 50.0 mg/kg/injection, schedule: Q01DX009 (ip), vehicle: suspension in saline) 107 % of control; (dose: 100.0 mg/kg/injection, schedule: Q01DX009 (ip), vehicle: suspension in saline) 90 % of control.

For the compound `COc1cc2c(c(OC)c1O)-c1ccc(OC)c(=O)cc1[C@@H](NC(=O)C(F)(F)F)CC2`, the T/C (dose: 0.62 mg/kg/injection, schedule: Q01DX009 (ip), vehicle: Klucel (hydroxypropylcellulose) (HPC)) was 121 % of control; the T/C under setting [8] is 117 % of control and 124 % of control; the T/C under setting [9] was 116 % of control; the T/C under setting [10] was 118 % of control.

On to `C=C1C(=O)OC2CC(C)C3(O)CCC(C)(CC(OC(=O)C(C)C)C12)O3` (stereo unspecified), for which the T/C is, setting by setting: under setting [14], 99 % of control; under setting [4], 97 % of control; under setting [2], 98 % of control.

`O=[As](O)(O)c1ccc(Nc2nc(Cl)nc(Cl)n2)cc1`: the T/C runs as follows: (dose: 3.13 mg/kg/injection, schedule: Q01DX009 (ip), vehicle: Klucel (hydroxypropylcellulose) (HPC)) 100 % of control; (dose: 6.25 mg/kg/injection, schedule: Q01DX009 (ip), vehicle: Klucel (hydroxypropylcellulose) (HPC)) 110 % of control.

For `CCP(=S)(CC)P(=S)(CC)CC`, the T/C reads like this: under setting [14], 101 % of control; under setting [4], 112 % of control; under setting [2], 94 % of control.

As to `CNc1ccc(O)cc1`, the T/C runs as follows: under setting [11], 92 % of control; under setting [12], 92 % of control; under setting [13], 95 % of control.

For the compound `CCc1ccccc1NC(=O)Nc1ccc(Cl)c(Cl)c1`, the T/C by setting is: (dose: 75.0 mg/kg/injection, schedule: Q01DX009 (ip), vehicle: Klucel (hydroxypropylcellulose) (HPC)) 102 % of control; (dose: 150.0 mg/kg/injection, schedule: Q01DX009 (ip), vehicle: Klucel (hydroxypropylcellulose) (HPC)) 97 % of control; (dose: 300.0 mg/kg/injection, schedule: Q01DX009 (ip), vehicle: Klucel (hydroxypropylcellulose) (HPC)) 89 % of control.

Take `CC1([CH2][Hg][I])CS(=O)(=O)CC(C)([CH2][Hg][I])O1` (stereo unspecified): the T/C by setting is: (dose: 1.25 mg/kg/injection, schedule: Q01DX009 (ip), vehicle: saline sonified) 97 % of control; under setting [5], 100 % of control; (dose: 2.5 mg/kg/injection, schedule: Q01DX009 (ip), vehicle: saline sonified) 92 % of control; (dose: 4.0 mg/kg/injection, schedule: Q01DX009 (ip), vehicle: saline sonified) 102 % of control; under setting [6], 94 % of control; (dose: 8.0 mg/kg/injection, schedule: Q01DX009 (ip), vehicle: saline sonified) 95 % of control. Also, the T/C is 100 % of control under setting [7]; 90 % of control (dose: 16.0 mg/kg/injection, schedule: Q01DX009 (ip), vehicle: saline sonified); 100 % of control (dose: 16.0 mg/kg/injection, schedule: Q01DX009 (ip), vehicle: saline with Tween-80); 94 % of control (dose: 32.0 mg/kg/injection, schedule: Q01DX009 (ip), vehicle: saline with Tween-80).

As to `C(COCC1CO1)OCC1CO1` (stereo unspecified), the T/C was 91 % of control (dose: 25.0 mg/kg/injection, schedule: Q01DX009 (ip), vehicle: saline); 113 % of control (dose: 50.0 mg/kg/injection, schedule: Q01DX009 (ip), vehicle: saline); 119 % of control (dose: 100.0 mg/kg/injection, schedule: Q01DX009 (ip), vehicle: saline).

Turning to `CCCCC(=O)OCC1OC(n2cnc3c(=S)nc[nH]c32)C(OC(=O)CCCC)C1OC(=O)CCCC` (stereo unspecified), under setting [13], the T/C is 119 % of control.

As for `O=C(OC1CCCCCCC1)C(F)(F)F`, the T/C runs as follows: under setting [4], 100 % of control; under setting [3], 117 % of control.

Turning to `CCN(C(=O)Nc1ccc(OC)cc1)c1ccccc1`, the T/C is 97 % of control under setting [4], 100 % of control under setting [2] and 88 % of control under setting [3].

For the compound `Nc1nc(=S)c2ncn(C3OC(COC(=O)c4ccccc4)C(OC(=O)c4ccccc4)C3OC(=O)c3ccccc3)c2[nH]1` (stereo unspecified), the T/C under setting [13] was 115 % of control.

Consider `CCCCOCN(COCCCC)C(C)Cc1ccccc1` (stereo unspecified), for which the T/C is, setting by setting: under setting [12], 95 % of control and 100 % of control; under setting [13], 98 % of control and 104 % of control; (dose: 50.0 mg/kg/injection, schedule: Q01DX009 (ip), vehicle: saline with Tween-80) 99 % of control and 105 % of control; under setting [1], 106 % of control and 110 % of control; (dose: 200.0 mg/kg/injection, schedule: Q01DX009 (ip), vehicle: saline with Tween-80) 90 % of control and 100 % of control.
